Legend:
C6 cells = details: cells loaded with 0.1 μg/ml DOX alone
C-26 cells [1] = experiment: Solid tumor model (inherent MDR); type: in vivo, mice; details: for solid tumor volume with time, single agent: fluoxetine 0.04 mg/kg daily oral alone, MMC or DOX 5 mg/kg i.v. alone
Protocol: In the solid tumor model, MDR-inherent C-26 cells were injected into the animal's right-hind footpad.
In the solid tumor model, Mitomycin C (MMC) and Doxorubicin (DOX) were tested separately, each at a dose of 5 mg/kg body.

B16F10 cells = experiment: Lung metastasis model (inherent MDR); type: in vivo, mice; details: for lung metastatic burden (lung weight, number of metastasis), single agent: Doxorubicin 10 mg/kg alone, chemosensitizer 0.04 mg/kg daily oral alone
P388/WT cell line = experiment: MTT cell viability, non-resistant cell line; type: cell-based, murine
Protocol: (§1) After 4 hours incubation, the treatment media was replaced with CS- and CT-free media and the experiment was terminated 24 hours later.

P388/ADR cell line = experiment: MTT cell viability, MDR-acquired cell line; type: cell-based, murine; details: for increase in cell death, combined treatment with DOX: DOX (1, 5, 10 μg/ml) + 5 μM chemosensitizer
Protocol: as §1

[2] = Animals' body weight (treatment toxicity) in P388/WT and P388/ADR models; type: in vivo, mice; details: fluoxetine 0.04 mg/kg daily oral only; DOX 3 mg/kg days 1, 5, 9; both tumor models
Protocol: (§2) P388/WT (non-resistant) or P388/ADR (MDR-acquired) murine leukemia cells were propagated in the peritoneum of BDF1 female mice by weekly transfer of 0.5 ml of peritoneal fluid containing 5×10^5 cells, to generate an intraperitoneal ascites model.
(§3) In both models, Doxorubicin (DOX) was tested. Doses of 3 mg/kg body were injected into the lateral tail vain, 1, 5 and 9 days after tumor inoculation.
(§4) Comparative experiments were run in parallel with the sensitive, non-resistant P388/WT model and the corresponding, MDR-acquired P388/ADR model. […] A group of untreated healthy animals was served as a control group. […] The fluoxetine was given in the drinking water, from tumor inoculation and on. Doxorubicin was injected into the lateral tail vain 1, 5 and 9 days post tumor inoculation. The effects of the various treatments on tumor response were monitored through animals' survival and animals' body weight. The latter was monitored in order to assess the treatment toxicity.

[3] = system: PANC-1, C6, MCF-7, U20S and HT1080 cell lines; details: 48 hours; for reduction in cell survival, drug alone: non-resistant cell lines, 0.1 μg/ml DOX, 0.3 μg/ml VIN
P388/ADR cells [4] = experiment: Intracellular accumulation of Doxorubicin, confocal microscopy (system II); type: cell-based, murine
Protocol: (§5) At the end of the incubation time, the cells were washed 6 times with PBS, fixed with a mounting medium (Mounting medium with anti-fading agents, Biomeda corp., CA, USA) and were analysed by Confocal microscopy (Zeiss LSM 510). Excitation was at 488 nm and emission was measured using a band pass filter of 505-550 nm.

P388/ADR cells [5] = experiment: Intracellular accumulation of Rhodamine-123, flow cytometry (system I); type: cell-based, murine; details: 5 μM Rhodamine-123 + […] μM chemosensitizer, suspended cells
Text: The cells were thereafter analyzed for intracellular fluorescence, using a flow cytometer (Becton-Dickinson, USA). Excitation and emission were at 485 nm and 547 nm, respectively.

C-26 cells [6] = experiment: Intracellular accumulation of Rhodamine-123, confocal microscopy (system II); type: cell-based, murine; details: 5 μM Rhodamine-123 + […] μM chemosensitizer, monolayers
Protocol: as §5

P388/ADR = experiment: Intraperitoneal ascites model, MDR-acquired tumor, survival; type: in vivo, mice; details: DOX 3 mg/kg + fluoxetine 0.04 mg/kg daily oral
P388/WT = experiment: Intraperitoneal ascites model, non-resistant tumor, survival; type: in vivo, mice; details: DOX 3 mg/kg + fluoxetine 0.04 mg/kg daily oral
Protocol: as §2, §3, §4

[7] = system: B16F10 and C-26 cell lines; details: Mitomycin C 50 μg/ml or Doxorubicin 1.0 μg/ml with 15 μM fluoxetine
[8] = cited from earlier work
C6 and PANC-1 cells = system: C6 and PANC-1 cells; set-up: dose or concentration left out as unconfirmed; details: […] μM fluoxetine alone, 24 hours
[9] = fluoxetine alone 1-20 μM, 4 hours then 20 hours CS-free media

Structure (SMILES): COc1cccc2c1C(=O)c1c(O)c3c(c(O)c1C2=O)C[C@@](O)(C(=O)CO)C[C@@H]3O[C@H]1C[C@H](N)[C@H](O)[C@H](C)O1 [Doxorubicin]
- time for complete depletion of intracellular DOX (C6 cells): ≤ 2 h
- solid tumor volume with time, single agent (C-26 cells [1]): increases fast and exponentially
- lung metastatic burden (lung weight, number of metastasis), single agent (B16F10 cells): only a mild reduction in the metastatic burden
- cell death (P388/WT cell line; 0.5 μg/ml DOX alone): about 50%
- cell death (P388/WT cell line; 5 μg/ml DOX alone): 100%
- cell death (P388/ADR cell line; 5 μg/ml DOX alone): < 20%
- cell death (P388/ADR cell line; doubled drug concentration (10 μg/ml DOX) alone): about 30%
- change in body weight, single agent [2]: minor weight decrease
- reduction in cell survival, drug alone [3]: 50%
- intracellular accumulation of doxorubicin alone (confocal images) (P388/ADR cells [4]; 5 μg/ml Doxorubicin alone): quite poor

Structure (SMILES): CO[C@@]12[C@H](COC(N)=O)C3=C(C(=O)C(C)=C(N)C3=O)N1C[C@@H]1N[C@@H]12 [Mitomycin C]
- solid tumor volume with time, single agent (C-26 cells [1]): increases fast and exponentially

Structure (SMILES): COc1ccc(CCN(C)CCCC(C#N)(c2ccc(OC)c(OC)c2)C(C)C)cc1OC (centres unmarked) [Verapamil]
- increase of intracellular Rhodamine-123 fluorescence vs chemosensitizer-free control (P388/ADR cells [5]): about 60%
- intracellular accumulation of Rhodamine-123 (confocal images) (C-26 cells [6]): an increase in the intracellular level of Rhodamine-123
- increase in cell death, combined treatment with DOX (P388/ADR cell line): modest increase in cell death

Structure (SMILES): CC[C@]1(O)C[C@@H]2CN(CCc3c([nH]c4ccccc34)[C@@](C(=O)OC)(c3cc4c(cc3OC)N(C)[C@H]3[C@@](O)(C(=O)OC)[C@H](OC(C)=O)[C@]5(CC)C=CCN6CC[C@]43[C@@H]65)C2)C1 [Vinblastine]
- reduction in cell survival, drug alone [3]: 50%

Structure (SMILES): CNCCC(Oc1ccc(C(F)(F)F)cc1)c1ccccc1 (centres unmarked) [fluoxetine, N-methyl 3-(p-trifluoromethylphenoxy)-3-phenylpropylamine]
- increase of intracellular Rhodamine-123 fluorescence vs chemosensitizer-free control (P388/ADR cells [5]): about 200%
- elongated life span, combination of fluoxetine and DOX (P388/ADR): more than 2 fold
- survival prolonged vs saline, CS alone and CT alone (C-26 cells [1]; DOX+CS (DOX 5 mg/kg, fluoxetine 0.04 mg/kg daily oral)): 3 fold
- survival prolonged vs saline, CS alone and CT alone (C-26 cells [1]; MMC+CS (MMC 5 mg/kg, fluoxetine 0.04 mg/kg daily oral)): 2 fold
- solid tumor growth, combination therapy (C-26 cells [1]; fluoxetine 0.04 mg/kg daily oral + MMC or DOX 5 mg/kg): tumor growth is significantly slower
- solid tumor volume with time, single agent (C-26 cells [1]): increases fast and exponentially
- survival, CS alone (B16F10 cells; 75-days experiment): died rather early
- survival, combination treatment (B16F10 cells; CS + Doxorubicin, 75-days experiment): long survivors
- lung metastatic burden (lung weight, number of metastasis), single agent (B16F10 cells): highest metastatic burden
- lung metastatic burden, combination treatment (B16F10 cells; chemosensitizer + Doxorubicin 10 mg/kg): substantial reduction
- animals' survival, combined DOX and fluoxetine (P388/WT): had no effect on animal's survival
- intracellular accumulation of Rhodamine-123 (confocal images) (C-26 cells [6]): substantially higher increase in the intracellular accumulation of Rhodamine-123
- cell death, combination of the drug and fluoxetine [7]: 80-90%
- safe, substantially side effect-free daily dose range [8]: 10-15 mg/M^2
- effect of combination treatment on level of cells death (P388/WT cell line; DOX with 5 μM fluoxetine vs DOX alone): had no effect on the level of cells death
- effect on cells viability (P388/WT cell line; [9]): no effect on cells viability
- increase in cell death, combined treatment with DOX (P388/ADR cell line): significant increase
- increase in cell death as compared with Verapamil and CsA (P388/ADR cell line; DOX + 5 μM fluoxetine vs DOX + 5 μM Verapamil or CsA): 2-3 fold
- effect on cells viability (P388/ADR cell line; [9]): no effect on cells viability
- change in body weight, single agent [2]: no weight loss
- effect on cell survival (C6 and PANC-1 cells): does not affect cell survival at all
- toxicity to the cells ([3]; fluoxetine alone, 0-15 μM): not toxic to the cells
- intracellular level of DOX (confocal images) (P388/ADR cells [4]; 5 μg/ml Doxorubicin + 5 μM fluoxetine, monolayers): substantial increase in the intracellular level of DOX
